Earlier results on 1 molecule are cited in US20090092650A1, “Sustained Delivery Formulations of Octreotide Compounds” (priority 2004, published 2009).

The conditions of the series: Marbach et al. 1992.

For the molecule `C[C@@H](O)[C@@H]1NC(=O)[C@H](CCCCN)NC(=O)[C@@H](Cc2c[nH]c3ccccc23)NC(=O)[C@H](Cc2ccccc2)NC(=O)[C@@H](NC(=O)[C@H](N)Cc2ccccc2)CSSC[C@@H](C(=O)N[C@H](CO)[C@@H](C)O)NC1=O` [octreotide], the Therapeutic plasma level is on record as 0.3 ng/mL.
